Data: PubChem BioAssay (NCI)
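A five-concentration, 48-hour dose response in 96-well plates underlies each endpoint, interpolated linearly between surrounding concentrations. The concentration for 50% growth inhibition is given as GI50. Definition used: TGI = concentration required for complete inhibition of growth.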

Legend:
Assay in all cases: NCI tumour cell line growth inhibition, 48 h
786-0 renal = test system: 786-0 renal
EKVX NSCLC = test system: EKVX NSCLC
MALME-3M melanoma = test system: MALME-3M melanoma
NCI-H226 lung = test system: NCI-H226 lung
OVCAR-4 ovarian = test system: OVCAR-4 ovarian
OVCAR-5 ovarian = test system: OVCAR-5 ovarian
SF-539 CNS = test system: SF-539 CNS
SK-MEL-5 melanoma = test system: SK-MEL-5 melanoma
TK-10 renal = test system: TK-10 renal
HL-60(TB) leukemia = test system: HL-60(TB) leukemia

| SMILES | TGI (786-0 renal) [µM] | TGI (EKVX NSCLC) [µM] | TGI (MALME-3M melanoma) [µM] | TGI (NCI-H226 lung) [µM] | TGI (OVCAR-4 ovarian) [µM] | TGI (OVCAR-5 ovarian) [µM] | TGI (SF-539 CNS) [µM] | TGI (SK-MEL-5 melanoma) [µM] | TGI (TK-10 renal) [µM] | TGI (HL-60(TB) leukemia) [µM] | GI50 (786-0 renal) [µM] | GI50 (EKVX NSCLC) [µM] | GI50 (HL-60(TB) leukemia) [µM] | GI50 (MALME-3M melanoma) [µM] | GI50 (NCI-H226 lung) [µM] | GI50 (OVCAR-4 ovarian) [µM] | GI50 (OVCAR-5 ovarian) [µM] | GI50 (SF-539 CNS) [µM] | GI50 (SK-MEL-5 melanoma) [µM] | GI50 (TK-10 renal) [µM] |
| --- | --- | --- | --- | --- | --- | --- | --- | --- | --- | --- | --- | --- | --- | --- | --- | --- | --- | --- | --- | --- |
| N=Nc1c(OC(=O)Nc2ccccc2)[nH]c2ccccc12 | 32.6 | > 100 | 29.2 | 37.9 | 30.7 | > 100 | 37.4 | 51.9 | 60.8 | – | – | – | – | – | – | – | – | – | – | – |
| COC(=O)[C@H]1[C@H]2C[C@@H]3c4[nH]c5cc(OC)ccc5c4CCN3C[C@H]2C[C@@H](OC(=O)c2cc(OC)c(OC)c(OC)c2)[C@@H]1OC | 27.7 | – | 34.2 | 66.7 | 27.8 | > 100 | 23.8 | 54.3 | 38 | 30.5 | – | – | – | – | – | – | – | – | – | – |
| COc1cc(N2CCN(C(C)C)CC2)ccc1Nc1nc(Nc2cccc3ncccc23)c2cc[nH]c2n1 | 12.4 | > 25 | 9.64 | > 25 | > 25 | > 25 | 8.15 | 6.66 | 19.4 | 14.8 | 5.27 | 8.83 | 3.26 | 4.52 | 4.82 | 7.54 | 2.5 | 3.94 | 3.41 | 3.97 |
| CN(C)c1ccc2c(c1)CN1C(=O)c3ccccc3C1=N2 | > 100 | – | > 100 | > 100 | > 100 | > 100 | > 100 | > 100 | > 100 | > 100 | > 100 | – | > 100 | > 100 | > 100 | > 100 | > 100 | > 100 | > 100 | > 100 |
| CC1(C)OC(=O)[C@@](C)([C@H](O)c2ccccc2)O1 | > 100 | > 100 | > 100 | > 100 | > 100 | – | > 100 | > 100 | > 100 | > 100 | – | – | – | – | – | – | – | – | – | – |
| Cc1cc2cccnc2c2ncccc12 | 5.97 | 16 | 7.21 | 8.81 | 14.8 | 42.1 | 10.8 | 10.7 | 23.9 | – | 0.77 | 0.665 | – | 2.17 | 1.33 | 0.418 | 1.35 | 1.83 | 1.3 | 0.713 |
| O=C(C/C(=N\NC(=O)C[n+]1ccccc1)C(=O)Nc1nc2ccc([N+](=O)[O-])cc2s1)CC(c1ccccc1)c1c(O)c2ccccc2oc1=O (stereo not drawn) | > 100 | > 100 | > 100 | – | > 100 | > 100 | > 100 | > 100 | > 100 | > 100 | – | – | – | – | – | – | – | – | – | – |
| O=C(/C=C1\C(=O)N(Cc2ccc([N+](=O)[O-])cc2)c2ccccc21)c1ccc(OCCN2CCCCC2)cc1 | 2.61 | 3.9 | 2.74 | 21.4 | 2.83 | 3.09 | 2.89 | 3.04 | 2.74 | – | 1.29 | 1.56 | – | 1.22 | 3.14 | 1.47 | 1.33 | 1.53 | 1.67 | 1.43 |
| C=C[C@@]1(C)CCC2(O)C(CCC3C2(C)CCC[C@@]3(C)COC(=O)CC(=O)OC)C1 (stereo partly drawn) | > 100 | – | 32.3 | 55.9 | 33.3 | 57.8 | 36.1 | 32.1 | 73.3 | 52.6 | – | – | – | – | – | – | – | – | – | – |
| CN1CCN(CCCOc2cccc3nc(Nc4ccc(Cl)c(F)c4)ccc23)CC1 | 3.22 | 3.86 | 4.05 | 4.14 | 12.4 | 3.26 | 3.04 | 3.17 | 3.28 | – | 1.67 | 1.89 | – | 1.92 | 2.05 | 3.13 | 1.55 | 1.53 | 1.78 | 1.81 |
| O=c1oc2cc(N=Cc3ccccc3Cl)ccc2c2ccccc12 | > 100 | > 100 | > 100 | > 100 | > 100 | > 100 | > 100 | > 100 | – | > 100 | – | – | – | – | – | – | – | – | – | – |
| COc1ccc(C2=Nc3ccccc3SC(C)C2)cc1 (stereo not drawn) | > 100 | > 100 | > 100 | > 100 | > 100 | > 100 | > 100 | – | > 100 | > 100 | – | – | – | – | – | – | – | – | – | – |
| CN1C(OCc2ccccc2)c2c(ccc3c2OCO3)C2C=Cc3cc4c(cc3C21)OCO4 (stereo not drawn) | 2.65 | 2.98 | 2.52 | 2.8 | 3.06 | 2.86 | 2.99 | 2.58 | 3.3 | – | – | – | – | – | – | – | – | – | – | – |
| CCN(CC)C(=O)CC1=C(C)/C(=C/c2[nH]c(-c3ccc[nH]3)cc2OC)N=C1C | 3.36 | 38.7 | 9.05 | 6.11 | > 100 | 60.9 | 12.2 | – | 17.3 | 61.9 | 0.549 | 0.452 | 1.82 | 0.982 | 0.531 | 0.409 | 5.19 | 0.498 | – | 0.466 |
| COc1cc(-c2nn(-c3ccc(NC(=O)Nc4ccc(Cl)c(Cl)c4)cc3)cc2-c2ccncc2)ccc1Cl | 5.43 | 15.3 | – | 69.1 | > 100 | > 100 | 33.6 | 8.29 | > 100 | > 100 | 2.4 | 2.61 | 3.55 | – | 4.19 | 4.41 | 2.54 | 2.89 | 2.48 | 6.5 |
| CN(CCC#N)c1ccc(/C=C(\C#N)c2cccc(C(F)(F)F)c2)cc1 | > 100 | – | > 100 | > 100 | > 100 | > 100 | > 100 | 30.5 | > 100 | > 100 | 4.15 | – | 3 | 3.59 | 6.02 | 4.71 | 6.73 | 4.31 | 3.23 | 3.12 |
